Experimental data published in patent US9410100B2, “Tritylated ethers” (ANGUS Chemical Company, priority 2012, dated 2016).

Columns and labels:
[1] = Solubility studies of functionalized tritylated phenol ethers in solvents; type: physicochemical
Description: The solubility properties of functionalized tritylated phenol ethers were determined by mixing 0.1 gram samples of sample in 0.9 grams of solvent. The mixtures were warmed at 60° C. for a few minutes to make homogeneous solutions. The solutions were cooled back to room temperature, and then they were placed into a freezer at −10° C. The solutions were checked daily to see if crystallization had occurred.

OCCCCCCOc1ccc(C(c2ccccc2)(c2ccccc2)c2ccccc2)cc1OCCCCCCO [Ex. 4, 6,6′-((4-trityl-1,2-phenylene)bis(oxy))bis(hexan-1-ol)]
Solubility at RT ([1]; 10 wt % in 1-Octanol, cooled to room temperature): soluble | Solubility at 60 C. ([1]; 10 wt % in 1-Octanol, warmed at 60 C): soluble | Solubility at RT ([1]; 10 wt % in AROMATIC 200, cooled to room temperature): insoluble | Solubility at 60 C. ([1]; 10 wt % in AROMATIC 200, warmed at 60 C): insoluble | Solubility at RT ([1]; 10 wt % in DMAc, cooled to room temperature): soluble | Solubility at 60 C. ([1]; 10 wt % in DMAc, warmed at 60 C): soluble | Solubility at RT ([1]; 10 wt % in DPGME, cooled to room temperature): soluble | Solubility at 60 C. ([1]; 10 wt % in DPGME, warmed at 60 C): soluble | Solubility at RT ([1]; 10 wt % in NMP, cooled to room temperature): soluble | Solubility at 60 C. ([1]; 10 wt % in NMP, warmed at 60 C): soluble | Solubility at RT ([1]; 10 wt % in Tetralin, cooled to room temperature): insoluble | Solubility at 60 C. ([1]; 10 wt % in Tetralin, warmed at 60 C): soluble | melting point: 81 to 84 °C

OCCCCCCOc1ccc(C(c2ccccc2)(c2ccccc2)c2ccccc2)cc1 [compound 1, 6-(4-Tritylphenoxy)hexan-1-ol]
melting point: 158 to 161 °C
